SMILES strings stand for the structures.

Format in all cases: cell-based, mouse
In assay [1] the test system is α7 integrin (LacZ reporter in α7βgal+/− myoblasts). In words: Myoblast α7+/LacZ integrin FDG assay (Burkin assay in myoblasts, 96-well). The note with it: α7+/LacZ myoblasts, 96-well.
Assay [2] has as its system α7 integrin (LacZ reporter in α7+/LacZ myotubes). Description: Myotube α7 integrin FDG assay (Burkin assay in myotubes, 96-well). The note with it: myotubes.
The test system of assay [3] is β-galactosidase in CMV-LacZ C2C12 myotubes. Description: CMV-LacZ secondary screen in C2C12 myotubes (β-Gal stabilizing assay). The note with it: for CMV-LACZ in Myotubes (β-galactosidase activity relative to DMSO): CMV-LacZ C2C12 myotubes, 96-well format; for CMV-LACZ in Myotubes, signal relative to DMSO: C2C12 CMV-LacZ myotubes, fold relative to DMSO. The gist of the method:
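A secondary screen identifies compounds that stabilize β-gal independently of the native promoter, using CMV-LacZ C2C12 cells. Curves span 0.5–40 μM at six levels, in duplicate.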

Take `O=Cc1cnc(N2CCCCC2)s1` [MLS000721730-01]: the “Burkin Assay in Myoblasts, value relative to DMSO” value in assay [1] (0.5 uM) came out at 0.8377; in assay [1] (1 uM), 0.8197; in assay [1] (5 uM), 0.8157; in assay [1] (10 uM) it was 0.8824; in assay [1] (20 uM), 0.827; in assay [1] (40 uM), 0.9342. In addition, the “Burkin Assay in Myotubes (signal relative to DMSO)” value is 0.9195 in assay [2] (0.5 uM); 1.064 in assay [2] (1 uM); 0.8563 in assay [2] (5 uM); 1.025 in assay [2] (10 uM); 0.877 in assay [2] (20 uM); 1.071 in assay [2] (40 uM). Also, the “CMV-LACZ in Myotubes (β-galactosidase activity relative to DMSO)” value in assay [3] (5 uM) amounted to 0.8504; in assay [3] (10 uM) it was 0.9207; in assay [3] (20 uM), 0.9311; in assay [3] (40 uM), 1.031.
On to `Cc1cccc(NC(=O)c2cc3ccccc3oc2=O)c1` [MLS001209245-01], for which the “Burkin Assay in Myoblasts, signal relative to DMSO” value in assay [1] (0.5 uM) turned out to be 1.039; in assay [1] (1 uM), 1.132; in assay [1] (5 uM), 1.021; in assay [1] (10 uM), 1.071; in assay [1] (20 uM), 1.1; in assay [1] (40 uM) it was 1.039. The “Burkin Assay in Myotubes, α7 integrin LacZ reporter signal relative to DMSO” value in assay [2] (0.5 uM) is recorded as 1.113; in assay [2] (1 uM), 1.245; in assay [2] (5 uM), 0.9667; in assay [2] (10 uM), 0.9979; in assay [2] (20 uM) it was 0.6876; in assay [2] (40 uM) it was 0.5729. For the same compound, the “CMV-LACZ in Myotubes, signal relative to DMSO” value in assay [3] (5 uM) turned out to be 0.8568; in assay [3] (10 uM), 0.9675; in assay [3] (20 uM), 0.9662; in assay [3] (40 uM), 0.9952.
As to `COc1ccc(CNC(=O)CCN2C(=O)c3ccccc3C2=O)cc1` [MLS001200980-01], the “Burkin Assay in Myoblasts, value relative to DMSO” value in assay [1] (0.5 uM) came out at 0.9918; in assay [1] (1 uM) it was 0.9255; in assay [1] (5 uM), 1.055; in assay [1] (10 uM), 0.9544; in assay [1] (20 uM), 0.9561; in assay [1] (40 uM), 0.9201. In addition, the “Burkin Assay in Myotubes (signal relative to DMSO)” value stood at 1.0669 in assay [2] (0.5 uM); 1.022 in assay [2] (1 uM); 1.121 in assay [2] (5 uM); 1.216 in assay [2] (10 uM); 1.015 in assay [2] (20 uM); 0.9712 in assay [2] (40 uM). The “CMV-LACZ in Myotubes, signal relative to DMSO” value in assay [3] (5 uM) came to 0.8782; in assay [3] (10 uM) it was 0.9568; in assay [3] (20 uM) it was 0.9272; in assay [3] (40 uM), 1.0886.
`NC(=O)c1cccnc1Oc1ccc(Cl)cc1Cl` [MLS000861434-01]: the “Burkin Assay in Myoblasts, signal relative to DMSO” value stood at 0.9464 in assay [1] (0.5 uM); 1.028 in assay [1] (1 uM); 0.9133 in assay [1] (5 uM); 0.9772 in assay [1] (10 uM); 0.8777 in assay [1] (20 uM); 0.9322 in assay [1] (40 uM). Also, the “Burkin Assay in Myotubes, α7 integrin LacZ reporter signal relative to DMSO” value in assay [2] (0.5 uM) came to 0.9593; in assay [2] (1 uM) it was 1.066; in assay [2] (5 uM) it was 0.9788; in assay [2] (10 uM), 1.101; in assay [2] (20 uM) it was 0.8762; in assay [2] (40 uM) it was 1.058. Further, the “CMV-LACZ in Myotubes, signal relative to DMSO” value is 0.8844 in assay [3] (5 uM), 0.8027 in assay [3] (10 uM), 0.8429 in assay [3] (20 uM) and 0.8381 in assay [3] (40 uM).
For the compound `CCc1nnc(NC(=O)c2ccc(S(=O)(=O)NCC(C)C)cc2)s1` [MLS000027478-01], the “Burkin Assay in Myoblasts, signal relative to DMSO” value in assay [1] (0.5 uM) was determined as 0.9552; in assay [1] (1 uM), 0.9044; in assay [1] (5 uM), 0.9721; in assay [1] (10 uM) it was 0.9209; in assay [1] (20 uM), 0.9145; in assay [1] (40 uM) it was 0.816. Further, the “Burkin Assay in Myotubes, α7 integrin LacZ reporter signal relative to DMSO” value in assay [2] (0.5 uM) was 1.0222; in assay [2] (1 uM) it was 0.9043; in assay [2] (5 uM) it was 0.984; in assay [2] (10 uM) it was 0.9583; in assay [2] (20 uM), 0.9854; in assay [2] (40 uM), 0.9115. In addition, the “CMV-LACZ in Myotubes, signal relative to DMSO” value in assay [3] (5 uM) was determined as 0.9489; in assay [3] (10 uM), 0.924; in assay [3] (20 uM), 0.9443; in assay [3] (40 uM), 0.979.
As for `OC1(c2ccccc2)C/C(=N\n2cnnc2)C=C1c1ccccc1` (stereo not shown) [MLS000081838-01], the “Burkin Assay in Myoblasts, value relative to DMSO” value in assay [1] (0.5 uM) amounted to 1.0627; in assay [1] (1 uM) it was 1.047; in assay [1] (5 uM), 0.9611; in assay [1] (10 uM), 0.9253; in assay [1] (20 uM), 0.9822; in assay [1] (40 uM), 0.9234. The “Burkin Assay in Myotubes (signal relative to DMSO)” value in assay [2] (0.5 uM) worked out at 0.7425; in assay [2] (1 uM) it was 1.018; in assay [2] (5 uM) it was 0.9002; in assay [2] (10 uM), 0.8704; in assay [2] (20 uM), 1.225; in assay [2] (40 uM), 1.036. For the same compound, the “CMV-LACZ in Myotubes, signal relative to DMSO” value in assay [3] (5 uM) was found to be 0.9175; in assay [3] (10 uM), 0.8889; in assay [3] (20 uM) it was 1.018; in assay [3] (40 uM), 0.9697.
Take `CCOc1ccc2ccccc2c1C1NC(=O)N(C)C(C)=C1C(=O)OCCOC` (stereo not shown) [MLS001167424-01]: the “Burkin Assay in Myoblasts, value relative to DMSO” value in assay [1] (0.5 uM) was determined as 0.9904; in assay [1] (1 uM) it was 1.428; in assay [1] (5 uM), 0.8924; in assay [1] (10 uM), 0.907; in assay [1] (20 uM), 0.7995; in assay [1] (40 uM) it was 0.8164. Moreover, the “Burkin Assay in Myotubes (signal relative to DMSO)” value was found to be 1.046 in assay [2] (0.5 uM); 0.9596 in assay [2] (1 uM); 1.365 in assay [2] (5 uM); 0.7848 in assay [2] (10 uM); 1.0277 in assay [2] (20 uM); 0.9779 in assay [2] (40 uM). For the same compound, the “CMV-LACZ in Myotubes, signal relative to DMSO” value was 0.7491 in assay [3] (5 uM), 0.9718 in assay [3] (10 uM), 1.157 in assay [3] (20 uM) and 0.9925 in assay [3] (40 uM).
